ChEMBL document CHEMBL5537185, “Discovery of the First-in-Class RORγ Covalent Inhibitors for Treatment of Castration-Resistant Prostate Cancer” (J Med Chem, 2024)
The source made the active and inactive calls. The rule behind the calls is not given here.

Columns and labels:
LNCaP C4-2B [1] = experiment: Induction of apoptosis in human LNCaP C4-2B cells assessed as increase in caspase-3 activity at 1.25 to 5 uM by Western blot analysis; type: functional, cell-based; details: dose 1.25-5 µM
CWR22R [2] = experiment: Downregulation of KLK2 mRNA expression in human 22Rv1 cells at 1.25 to 5 uM incubated for 48 hrs by qRT-PCR analysis; type: functional, cell-based; details: dose 1.25-5 µM
CWR22R [3] = experiment: Antiproliferative activity against human 22Rv1 cells incubated for 4 days by CCK8 assay; details: 22Rv1, 96 h
LNCaP C4-2B [4] = experiment: Antiproliferative activity against human LNCaP C4-2B cells incubated for 4 days by CCK8 assay; details: 96 h
CWR22R [5] = experiment: Downregulation of NKX3-1 mRNA expression in human 22Rv1 cells at 1.25 to 5 uM incubated for 48 hrs by qRT-PCR analysis; type: functional, cell-based; details: dose 1.25-5 µM
CWR22R [6] = experiment: Downregulation of KLK3 mRNA expression in human 22Rv1 cells at 1.25 to 5 uM incubated for 48 hrs by qRT-PCR analysis; type: functional, cell-based; details: dose 1.25-5 µM
[7] = Toxicity in NOD/SCID mouse assessed as tolerability at 5 to 10 mg/kg, ip administered five times a week for 2 weeks and measured two times per week; type: organism-based; details: in vivo, 336 h, dose 5-10 mg/kg
[8] = AUCinfinity in ICR mouse at 3 mg/kg, iv measured upto 24 hrs by LC-MS/MS analysis; type: ADME, organism-based; details: in vivo
[9] = Toxicity in NOD/SCID mouse assessed as change in body weight at 5 to 10 mg/kg, ip administered five times a week for 2 weeks and measured two times per week; type: organism-based; details: in vivo, 336 h, dose 5-10 mg/kg
[10] = AUClast in ICR mouse at 10 mg/kg, po measured upto 24 hrs by LC-MS/MS analysis; type: ADME, organism-based; details: in vivo
CWR22R [11] = experiment: Antitumor activity against human 22Rv1 cells xenografted in NOD/SCID mouse assessed as tumor growth inhibition at 10 mg/kg, ip administered five times a week for 2 weeks and measured two times per week; type: functional; details: 22Rv1, 336 h, read-out: TGI
[12] = Half life in ICR mouse at 10 mg/kg, po measured upto 24 hrs by LC-MS/MS analysis; type: ADME, organism-based; details: in vivo
[13] = Half life in ICR mouse at 3 mg/kg, iv measured upto 24 hrs by LC-MS/MS analysis; type: ADME, organism-based; details: in vivo
LNCaP C4-2B [14] = experiment: Inhibition of colony formation in human LNCaP C4-2B cells compound addition at every 3 days and measured after 14 days by crystal violet staining based assay; type: functional, cell-based; details: dose 1.25-5 µM, time 14.0 day
LNCaP C4-2B [15] = experiment: Downregulation of AR expression in human LNCaP C4-2B cells incubated for 24 to 72 hrs by Western blot analysis; type: functional, cell-based; details: dose 1.25-5 µM, time 24-72 hrs
[16] = Volume of distribution at steady state in ICR mouse at 3 mg/kg, iv measured upto 24 hrs by LC-MS/MS analysis; type: ADME, organism-based; details: in vivo, read-out: Vdss
CWR22R [17] = experiment: Induction of apoptosis in human 22Rv1 cells assessed as increase in caspase-7 activity at 1.25 to 5 uM by Western blot analysis; type: functional, cell-based; details: dose 1.25-5 µM
[18] = Cmax in ICR mouse at 3 mg/kg, iv measured upto 24 hrs by LC-MS/MS analysis; type: ADME, organism-based; details: in vivo
[19] = target: T1, Nuclear receptor ROR-gamma (Homo sapiens) (UniProt P51449); experiment: Covalent binding affinity to RORgamma (unknown origin) expressed in Escherichia coli assessed as covalent adduct formation incubated for 4 hrs by mass spectrometric analysis
T1 sequence (whole entry): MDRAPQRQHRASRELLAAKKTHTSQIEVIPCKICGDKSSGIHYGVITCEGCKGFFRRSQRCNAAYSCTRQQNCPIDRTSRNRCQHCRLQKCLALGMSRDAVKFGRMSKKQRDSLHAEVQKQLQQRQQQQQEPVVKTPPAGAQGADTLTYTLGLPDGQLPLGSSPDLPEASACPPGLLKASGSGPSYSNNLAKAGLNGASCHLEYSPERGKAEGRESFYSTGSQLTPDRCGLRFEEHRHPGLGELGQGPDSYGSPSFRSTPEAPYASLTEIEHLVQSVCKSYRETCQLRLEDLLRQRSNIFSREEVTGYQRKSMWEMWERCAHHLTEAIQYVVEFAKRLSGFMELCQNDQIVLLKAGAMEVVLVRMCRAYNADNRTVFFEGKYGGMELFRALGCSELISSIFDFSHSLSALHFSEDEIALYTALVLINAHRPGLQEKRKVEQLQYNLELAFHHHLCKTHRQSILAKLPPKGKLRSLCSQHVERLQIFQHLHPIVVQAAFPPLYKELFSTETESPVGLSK

CWR22R [20] = experiment: Downregulation of AR expression in human 22Rv1 cells incubated for 48 hrs by qRT-PCR analysis; type: functional, cell-based; details: dose 1.25-5 µM
CWR22R [21] = experiment: Antitumor activity against human 22Rv1 cells xenografted in NOD/SCID mouse assessed as tumor growth inhibition at 5 mg/kg, ip administered five times a week for 2 weeks and measured two times per week; type: functional; details: 22Rv1, 336 h, read-out: TGI
LNCaP C4-2B [22] = experiment: Downregulation of KLK3 mRNA expression in human LNCaP C4-2B cells at 1.25 to 5 uM incubated for 48 hrs by qRT-PCR analysis; type: functional, cell-based; details: dose 1.25-5 µM
LNCaP = experiment: Antiproliferative activity against human LNCaP cells incubated for 4 days by CCK8 assay; details: 96 h
CWR22R [23] = experiment: Downregulation of AR expression in human 22Rv1 cells incubated for 24 to 72 hrs by Western blot analysis; type: functional, cell-based; details: dose 1.25-5 µM, time 24-72 hrs
LNCaP C4-2B [24] = experiment: Induction of apoptosis in human LNCaP C4-2B cells assessed as increase in caspase-7 activity at 1.25 to 5 uM by Western blot analysis; type: functional, cell-based; details: dose 1.25-5 µM
LNCaP C4-2B [25] = experiment: Downregulation of NKX3-1 mRNA expression in human LNCaP C4-2B cells at 1.25 to 5 uM incubated for 48 hrs by qRT-PCR analysis; type: functional, cell-based; details: dose 1.25-5 µM
[26] = AUClast in ICR mouse at 3 mg/kg, iv measured upto 24 hrs by LC-MS/MS analysis; type: ADME, organism-based; details: in vivo
CWR22R [27] = experiment: Downregulation of AR expression in human 22Rv1 cells at 1.25 to 5 uM by Western blot analysis; type: functional, cell-based; details: dose 1.25-5 µM, time 24-72 hrs, TDE = time-dependent effect
[28] = AUCinfinity in ICR mouse at 10 mg/kg, po measured upto 24 hrs by LC-MS/MS analysis; type: ADME, organism-based; details: in vivo
[29] = target: T2, Nuclear receptor ROR-gamma (Homo sapiens, UniProt P51449); experiment: Inhibition of Gal4-fused RORgamma LBD (unknown origin) expressed in HEK293T cells incubated for 48 hrs by luciferase based assay; type: cell-based
T2 sequence (P51449 whole entry): T1 sequence (whole entry)

LNCaP C4-2B [30] = experiment: Downregulation of KLK2 mRNA expression in human LNCaP C4-2B cells at 1.25 to 5 uM incubated for 48 hrs by qRT-PCR analysis; type: functional, cell-based; details: dose 1.25-5 µM
[31] = Metabolic stability in mouse liver microsomes assessed as half life at 0.1 uM preincubated for 10 mins followed by NADPH addition and measured upto 60 mins by LC-MS/MS analysis; type: ADME, Microsome; details: time < 70 min
CWR22R [32] = experiment: Downregulation of AR-V7 expression in human 22Rv1 cells incubated for 48 hrs by qRT-PCR analysis; type: functional, cell-based; details: dose 1.25-5 µM
CWR22R [33] = experiment: Induction of apoptosis in human 22Rv1 cells assessed as increase in caspase-3 activity at 1.25 to 5 uM by Western blot analysis; type: functional, cell-based; details: dose 1.25-5 µM

C=CC(=O)Nc1ccccc1-c1ccc(NC(=O)Cc2ccc(S(=O)(=O)CC)cc2)cc1Cl
Activity (LNCaP C4-2B [1]): Active
Activity (CWR22R [2]): Active
IC50 (CWR22R [3]): 770 nM
IC50 (LNCaP C4-2B [4]): 470 nM
Activity (CWR22R [5]): Active
Activity (CWR22R [6]): Active
Activity [7]: Non-Toxic
AUC(0-inf) [8]: 585 ng·h/mL
Activity [9]: Non-Toxic
AUC(0-t) at 24 h [10]: 248 ng·h/mL
inhibition in vivo at 10 mg/kg (CWR22R [11]): 62.6%
half-life [12]: 36.6 min
half-life [13]: 13.2 min
inhibition (LNCaP C4-2B [14]): Dose-Dependent Effect
Activity (LNCaP C4-2B [15]): Dose-Dependent Effect
Vd [16]: 0.75 L/kg
Activity (CWR22R [17]): Active
Cmax [18]: 2000 ng/mL
Activity [19]: Active
Activity (CWR22R [20]): Dose-Dependent Effect
inhibition in vivo at 5 mg/kg (CWR22R [21]): 41.9%
Activity (LNCaP C4-2B [22]): Active
IC50 (LNCaP): 630 nM
Activity (CWR22R [23]): Dose-Dependent Effect
Activity (LNCaP C4-2B [24]): Active
Activity (LNCaP C4-2B [25]): Active
AUC(0-t) at 24 h [26]: 584 ng·h/mL
Activity (CWR22R [27]): Tde
AUC(0-inf) [28]: 251 ng·h/mL
IC50 [29]: 210 nM
Activity (LNCaP C4-2B [30]): Active
half-life at 0.1 µM [31]: 21.3 min
Activity (CWR22R [32]): Dose-Dependent Effect
Activity (CWR22R [33]): Active
